From article PMC6367362, “MD001, a Novel Peroxisome Proliferator-activated Receptor α/γ Agonist, Improves Glucose and Lipid Metabolism” (Scientific Reports, 2019) come the findings set out here.

For one data set, the target named is T1, PPARα (Homo sapiens, UniProt Q07869).
T1 construct: HA; made in house
T1 sequence (Q07869 1-468): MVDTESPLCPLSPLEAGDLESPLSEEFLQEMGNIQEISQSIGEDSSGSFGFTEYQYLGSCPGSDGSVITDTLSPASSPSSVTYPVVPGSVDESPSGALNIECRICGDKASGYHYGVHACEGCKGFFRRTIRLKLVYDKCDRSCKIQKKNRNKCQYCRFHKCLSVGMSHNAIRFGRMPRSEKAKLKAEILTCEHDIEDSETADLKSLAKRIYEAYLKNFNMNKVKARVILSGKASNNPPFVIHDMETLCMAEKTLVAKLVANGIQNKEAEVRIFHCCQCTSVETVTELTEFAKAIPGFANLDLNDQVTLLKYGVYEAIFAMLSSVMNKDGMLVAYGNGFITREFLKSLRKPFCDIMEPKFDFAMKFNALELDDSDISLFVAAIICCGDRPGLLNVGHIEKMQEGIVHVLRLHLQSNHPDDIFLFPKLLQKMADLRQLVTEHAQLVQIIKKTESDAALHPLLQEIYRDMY
Kind of data set: SPR analysis of binding to immobilised HA-PPARα. Conditions: MD001 31.25-500 μM. The procedure:
(§1) SPR analysis was performed using a Reichert SR7500DC (Reichert Technologies, Depew, NY, USA). HA-PPARα, HA-PPARβ/δ, and HA-PPARγ were purified as previously described[23] and was immobilised on CMDH chips (Reichert Technologies) according to the manufacturer’s instructions. MD001 was loaded in a dose-dependent manner (31.25, 62.5, 125, 250, and 500 μM) for the SPR assay. The dissociation constant (KD) value was determined using the Scrubber2 program (Informer Technologies, Inc., Los Angeles, CA, USA).

The next data set addresses T2, PPARγ (Homo sapiens, UniProt P37231).
T2 construct: HA; made in house
T2 sequence (P37231 1-505): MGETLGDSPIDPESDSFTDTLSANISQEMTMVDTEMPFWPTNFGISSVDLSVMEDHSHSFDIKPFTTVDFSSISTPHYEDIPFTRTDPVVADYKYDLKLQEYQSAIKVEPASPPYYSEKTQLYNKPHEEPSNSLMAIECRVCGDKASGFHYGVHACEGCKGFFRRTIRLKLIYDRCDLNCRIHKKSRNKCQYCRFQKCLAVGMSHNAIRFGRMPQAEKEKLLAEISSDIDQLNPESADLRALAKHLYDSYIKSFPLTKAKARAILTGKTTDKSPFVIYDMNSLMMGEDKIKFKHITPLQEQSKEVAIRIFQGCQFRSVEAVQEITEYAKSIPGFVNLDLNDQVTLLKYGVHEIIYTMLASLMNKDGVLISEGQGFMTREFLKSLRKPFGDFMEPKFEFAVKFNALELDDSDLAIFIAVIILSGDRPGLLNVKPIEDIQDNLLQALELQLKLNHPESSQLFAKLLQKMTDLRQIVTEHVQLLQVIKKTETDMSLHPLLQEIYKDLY
The experiment in a line: SPR analysis of binding to immobilised HA-PPARγ. Particulars: MD001 31.25-500 μM. The procedure:
as §1

The next data set has as its system wild type C57BL/6J mice. Kind of data set: Oral once-daily administration to wild type C57BL/6J mice. Format: in vivo, mouse. The procedure:
Supplementary Figure S6. MD001 has no influence on food intake of mice. (A) Wild type C57/BL6 mice were orally administered with vehicle, rosiglitazone (20 mg/kg), or MD001 (20 mg/kg) once a day for 60 days. The change in their body weight was evaluated and presented as gain of body weight per group (n = 5 - 6 in each group). (B) The 3-day food intake in wild type C57/BL6 mice or db/db mice during the administration of the indicated drug was measured three times (n = 5 - 6 in each group). The data represent the mean ± SD.
C57/BL6 mice. (A-H) Wild type C57/BL6 mice were administered with vehicle, rosiglitazone (20 mg/kg), or MD001 (20 mg/kg) (n = 5 in each group) for 60 days, and their blood metabolites were measured. (B) Blood glucose level was examined during the administration of the […]

Where [1] appears, read: wild type C57BL/6J mice, 20 mg/kg, 60 days, compared to vehicle.
Setting [2] is: wild type C57BL/6 mice, 20 mg/kg, 60 days.

At PPARα, `Cc1c(O)cc(O)c2c(-c3ccccc3)c(C(=O)/C=C/c3ccccc3)c(=O)oc12` [MD001] showed a Kd of 9.55 ± 0.8 µM. Moreover, the Kd at PPARγ worked out at 0.14 ± 0.03 µM. Also, in the data set on wild type C57BL/6J mice (wild type C57BL/6J mice, once a day for 60 days), the body weight gain entry was “no induction of body weight gain”. The “H&E staining of adipose tissue, skeletal muscle, and liver” value in the data set on wild type C57BL/6J mice (wild type C57BL/6J mice, 20 mg/kg once a day for 60 days) was “no differences”. Also, in the data set on wild type C57BL/6J mice (setting [1]), the blood glucose entry is “did not have any effect” and the “levels of plasma lipids” value was “did not have any effect”. For the same compound, in the data set with wild type C57BL/6J mice (setting [2]), the “blood ALT levels” value is given as “no effect” and the “blood AST levels” value is reported as “no effect”.
